The text below walks through data of patent US5612217A, “Streptomyces sp. MA 7074 (ATCC 55605) used for microbial synthesis of HIV protease inhibitors” (Merck & Co., Inc., priority 1994, dated 1997).

This assay concerns the target T1, HIV protease (Human immunodeficiency virus type 1 group M subtype B, UniProt P03366).
T1 construct: the protease expressed in Eschericia coli; made in house; host or cells: Escherichia coli
In words: Assay for inhibition of microbial expressed HIV protease (in vitro, peptide substrate cleavage, HPLC). In kind it is biochemical. As to conditions: for % Potency Relative to Compound J, Based on HPLC / % Potency Relative to Compound J, Based On Nominal Wt.: IC50 of Compound J / IC50 of test compound x 100; for % Potency Relative to Compound J, Based on HPLC: concentration checked by HPLC using J as standard; for % Potency Relative to Compound J, Based On Nominal Wt.: dilution based on nominal weight. As to the method:
Inhibition studies of the reaction of the protease expressed in Eschericia coli with a peptide substrate [Val-Ser-Gln-Asn-(betanapthyl)Ala-Pro-Ile-Val, 0.5 mg/mL at the time the reaction is initiated] were in 50 mM Na acetate, pH 5.5, at 30° C. for 1 hour. Various concentrations of inhibitor in 1.0 μl DMSO were added to 25 μl of the peptide solution in water. The reaction is initiated by the addition of 15 μl of 0.33 nM protease (0.11 ng) in a solution of 0.133M Na acetate pH 5.5 and 0.1% bovine serum albumin. The reaction was quenched with 160 μl of 5% phosphoric acid. Products of the reaction were separated by HPLC (VYDAC wide pore 5 cm C-18 reverse phase, acetonitrile gradient, 0.1% phosphoric acid). The extent of inhibition of the reaction was determined as IC50 from the peak heights of the products.
Seven Compound J bioconversion products were assayed for in vitro HIV protease inhibitory by the assay for inhibition of microbial expressed HIV Protease, protocol given above. Two of the bioconversion products were isolated from MA7074 incubations, Compounds B1 and F. The IC50 of the parent Compound J was divided by the IC50 of each test compound and multiplied by 100 in order to calculate the percent potency of each compound relative to J.
In some cases, the dilution of the test compound was based on nominal weight. In other cases, especially when the weight was less than 250 μg, the concentration was checked by HPLC using J as standard.

With `CC(C)(C)NC(=O)[C@@H]1CN(Cc2cccnc2)CCN1C[C@@H](O)C[C@@H](Cc1ccc(O)cc1)C(=O)N[C@H]1c2ccccc2C[C@H]1O` [D], the “% Potency Relative to Compound J, Based on HPLC” value is reported as 31% and the “% Potency Relative to Compound J, Based On Nominal Wt.” value turned out to be 3.1%.

Consider `CC(C)(C)NC(=O)[C@@H]1CN(Cc2cccnc2)CCN1C[C@@H](O)C[C@@H](Cc1ccccc1)C(=O)N[C@H]1c2ccccc2[C@@H](O)[C@H]1O` [Compound B1], for which the “% Potency Relative to Compound J, Based on HPLC” value is recorded as 115%.

For `CC(C)(C)NC(=O)[C@@H]1CN(Cc2ccc[n+]([O-])c2)CCN1C[C@@H](O)C[C@@H](Cc1ccccc1)C(=O)N[C@H]1c2ccccc2C[C@H]1O` [E], the “% Potency Relative to Compound J, Based On Nominal Wt.” value is given as 34%.

Regarding `CC(C)(C)NC(=O)[C@@H]1CN(Cc2cccnc2)CCN1C[C@@H](O)C[C@@H](Cc1ccccc1)C(=O)N[C@H]1c2ccccc2[C@H](O)[C@H]1O` [A], the “% Potency Relative to Compound J, Based On Nominal Wt.” value is given as 27%.

For the compound `CC(C)(C)NC(=O)[C@@H]1CN(Cc2cccnc2)CCN1C[C@@H](O)C[C@@H](Cc1ccccc1)C(=O)N[C@H]1c2ccccc2C(=O)[C@H]1O` [Compound F], the “% Potency Relative to Compound J, Based On Nominal Wt.” value is on record as 16%. Further, under “qualitative statement, compared with Compound J where stated”, the “HIV-protease activity (in words)” value is listed as “less HIV-protease activity than Compound J”.
